Columns and labels:
[1] = system: follistatin, α6β4 integrin, Yap1; experiment: Staining of the skin for follistatin, α6β4 integrin and Yap1; assay type: in vivo
Text: Activins are members of the transforming growth factor-β family of growth and differentiation factors. The biological activity of activins is regulated by the secreted glycoprotein follistatin, which sequesters activins and thus inhibits their biological activities. Follistatin controls keratinocyte proliferation in skin wounds. Most importantly, it has been shown that limited activation of activin in keratinocytes is beneficial for the wound healing process. FIGS. 27A-C show the staining of the skin with activation of follistatin with POH-LA conjugate (FIG. 27A), POH, (FIG. 27B), and Linoleic Acid (FIG. 27C).
FIGS. 27D-F show the staining of the skin with activation of α6β4 integrin with POH-LA conjugate (FIG. 27D), POH, (FIG. 27E), and Linoleic Acid (FIG. 27F).
Yap1 is a critical modulator of epidermal stem cell proliferation and tissue expansion. α-catenin controls Yap1 activity and phosphorylation by modulating its interaction with 14-3-3 and the PP2A phosphatase. This aids in the identification of Yap1 as a determinant of the proliferative capacity of epidermal stem cells and as an important effector of a “crowd control” molecular circuitry in mammalian skin. FIGS. 27G-I show the staining of the skin with activation of Yap1 with POH-LA conjugate (FIG. 27G), POH, (FIG. 27H), and Linoleic Acid (FIG. 27I).

[2] = system: cyclobutane pyrimidine dimers (CPD) and pyrimidine (6-4) pyrimidone photoproducts (6-4PP); experiment: DNA damage (6-4PP and CPD) in UV exposed mouse skin; assay type: in vivo; conditions: skin DNA following UV exposure
Text: FIGS. 26A and 26B show the DNA damage that occurs following UV exposure with and without POH-LA conjugate treatment. Upon euthanasia of animals, skin tissues were collected from the back of the animals, fixed in formalin, and processed for analysis. Absorption of ultraviolet (UV) light produces two predominant types of DNA damage, cyclobutane pyrimidine dimers (CPD) and pyrimidine (6-4) pyrimidone photoproducts (6-4PP). UV DNA Damage standards for comparison to UV exposed mouse skin extracted DNA were used. Both the standard and sample DNA are first heat denatured before they are adsorbed onto a 96-well DNA high-binding plate. The 6-4PP (FIG. 26A) and CPDs (FIG. 26B) present in the sample or standard are probed with an anti6-4PP or CPD antibody, followed by an HRP conjugated secondary antibody. The 6-4PP or CPD content in an unknown sample is determined by comparing with a standard curve that is prepared from predetermined CPD-DNA standards 1,000-1.56 ng/ml). […] The skin has important barrier, sensory, and immune functions, contributing to the health and integrity of the organism. […]
FIGS. 26A and 26B show the DNA damage that occurs following UV exposure with and without POH-LA conjugate treatment. […] The 6-4PP or CPD content in an unknown sample is determined by comparing with a standard curve that is prepared from predetermined CPD-DNA standards 1,000-1.56 ng/ml).

[3] = system: skin inflammation induced by asTPA; experiment: asTPA-induced skin inflammation in mice; assay type: in vivo, mouse; conditions: topical, 3 days pretreatment plus 7 days asTPA, glycerol:ethanol (90:10)
Experimental: A first group of mice were pre-treated with a solution of 50 microliters (μL) of a conjugate of POH and linoleic acid (e.g., linoleoyl ester of POH) in a vehicle of a glycerol:ethanol (90:10) mixture. The POH-linoleic acid conjugate solution was applied on the hip flank of the mice for a period of 3 days. A second, control group of mice were treated solely with the glycerol:ethanol (90:10) vehicle.
After pre-treatment, skin inflammation was induced on the first and second groups of mice by daily cutaneous application of an acetonic solution of 12-0-Tetradecanoylphorbol-13-acetate (asTPA) (which is a known irritant) to the backs of the mice over seven days. The asTPA was not applied to a further control group. To facilitate application of the asTPA, mice were anaesthetized by inhalation of isofluorane. 100 microliters of asTPA (corresponding to 20 micrograms (μg) of TPA) was then applied onto the skin of the mice. Upon evaporation of the asTPA, the mice were returned to their cages.
During the seven-day period in which the first and second groups of mice were subjected to application of asTPA, the first group continued to receive treatment of the POH-linoleic acid conjugate and vehicle solution, and the second group continued to receive treatment of the vehicle. At the end of the seven-day period, the mice were photographed.

[4] = system: TMZ resistant (U251TR) U251 cells; experiment: Colony forming assay, TMZ resistant U251TR cells; assay type: cell-based, human
Experimental: (§1) Colony forming assays were carried out after cells were treated with TMZ alone, POH alone, and the TMZ-POH conjugate. […] Cancer Lett. 2011 Mar. 28; 302(2):100-8.

[5] = system: USC-02 glioma cancer stem cells; experiment: MTT cytotoxicity assay, USC-02 glioma cancer stem cells; assay type: cell-based; conditions: USC-02; increasing concentrations (TMZ 0-400 uM; POH 0-2 mM)
Text: (§2) Cancer Lett. 2011 Mar. 28; 302(2):100-8.

[6] = system: USC-04 glioma cancer stem cells; experiment: MTT cytotoxicity assay, USC-04 glioma cancer stem cells; assay type: cell-based; conditions: USC-04; increasing concentrations (TMZ 0-400 uM; POH 0-2 mM)
Text: as §2

[7] = system: TMZ sensitive (U251) cells; experiment: Colony forming assay, TMZ sensitive U251 cells; assay type: cell-based, human; conditions: TMZ sensitive U251 cells
Experimental: as §1

Compound	activation of cellular proteins [1]	skin regeneration via stem cell activation [1]	DNA damage (6-4PP and CPD content) [2]	skin appearance where asTPA was applied [3]	cytotoxicity (colony forming assay) [4]	cytotoxicity (MTT) [5]	cytotoxicity (MTT) [6]	cytotoxicity (colony forming assay) [7]
C=C(C)[C@@H]1CC=C(COC(=O)CCCCCCC/C=C\C/C=C\CCCCC)CC1 [POH-LA conjugate, Octadeca-9,12-dienoic acid 4-isopropenyl-cyclohex-1-enylmethyl ester]	enhance the activation of cellular proteins	stimulate skin regeneration via stem cell activation	less DNA damage	no inflammation or flaking	–	–	–	–
C=C(C)[C@@H]1CC=C(CO)CC1 [POH, perillyl alcohol]	–	–	–	–	demonstrated cytotoxicity	demonstrated cytotoxicity	demonstrated cytotoxicity	demonstrated cytotoxicity

Reference: patent publication US20240197891A1, “PHARMACEUTICAL COMPOSITIONS COMPRISING POH DERIVATIVES” (UNIVERSITY OF SOUTHERN CALIFORNIA, priority 2021, published 2024)
